Legend:
[1] = target: T1, HBV polymerase reverse transcriptase (HBV-RT) (Hepatitis B virus genotype D subtype ayw, UniProt P03156); assay: inhibitory activity against HBV polymerase in vitro (reverse transcriptase activity); format: biochemical; conditions: read-out: Inhibitory effect of HBV-RT; for inhibition at 0.1 µg/mL: 0.1 μg/ml; for inhibition at 1 µg/mL: 1 μg/ml
T1 construct: made in house; host or cells: E. coli
Text: Experiment 1: The inhibitory activity against HBV polymerase in vitro.
Recently, the inventors of the present invention have produced a recombinant HBV polymerase that is expressed from E.coli transformant, measured its enzyme activity and filed patent applications thereof [Korean Patent Application Nos. 94-3918, 96-33998 and 96-63255].
The inventions have established a method of measuring the reverse transcriptase activity of HBV polymerase in vitro. The fundamental principle is the same as the ELISA method, and after reacting the substrate with biotin- and DIG-modified nucleotide, a method of recognizing the polymerized substrate as anti-DIG antibody with peroxidase was used. […] and 20 μ of test compound were mixed and reacted at 14~30° C. for 18~24 hours. Then, the inhibitory effect of test compound against reverse trascriptase activity in the HBV polymerase was examined, compared with the results of control tests without the test compound.

[2] = target: T2, RNase H of HBV polymerase (HBV-RNase H) (Hepatitis B virus ayw/France/Tiollais/1979, UniProt P03156); assay: inhibitory effects against RNase H activity of HBV polymerase; format: biochemical; conditions: read-out: Inhibitory effect of HBV-RNase H; for inhibition at 0.1 µg/mL: 0.1 μg/ml; for inhibition at 1 µg/mL: 1 μg/ml
T2 construct: amylose/maltose step implies MBP fusion
Procedure: Experiment 2: The inhibitory effects against RNase H activity of HBV polymerase.
1) Expression of the RNase H domain derived from human HBV polymerase
E.coli NM 522 was transformed by the expression vector pMRH respectively and the transformants were cultured in LB medium at 37° C., overnight. These growing cultures were diluted 1:100, inoculated into a glucose rich medium and incubated until OD600 reached 0.5. Then IPTG (isopropylthiogalactoside) was added into the medium of which the fine concentration was 0.5 mM. The above growing cultures were incubated again at 20° C. for 16 hours and the RNase H domain was expressed.
The above cultured broth was centrifuged for 10 minutes at 3,000 rpm and the cell pellet was washed with 10 ml of TNE column buffer (10 mN Tris-Cl, pH 8.0, 200 mM NaCl, 1 mM EDTA), and resuspended in 10 ml of TNE column buffer. The cells were freezed and thawed 4 times repeatedly, and then disrupted by sonication for 10 seconds 3 times. The crude extract prepared in the above process was centrifuged for 30 minutes at 13,000 rpm, 4° C. and the supernatant was separated. The above process was repeated 2 times and then the supernatant passed the amylose resin. The resin was washed by using column buffer with 50 times of resin volume, and the RNase H domain was eluted by using buffer containing 10 mM maltose.
In addition, the RNase H domain produced from the expression vector pMRH was purified by using histidine tag affinity column, because RNase H has a histidine tag at the C-terminus. The resin (Ni-NTA, QIAGEN) used in the histidine tag affinity column was activated by using sonication buffer (50 mM sodium phosphate, pH 8.0, 300 mM sodium chloride) and 4~5 ml of the activated resin was charged in the glass tube whose diameter was about 1 cm. The protein sample obtained from above description passed the resin at the 0.1 ml/ min flow rate and the column was washed by using washing buffer with the 100~200 times volume of protein sample (50 mM sodium phosphate, pH 6.0, 300 mM sodium chloride, 10% glycerol). The recombinant protein was eluted by washing the column with concentration gradient of 0.01~0.5 M imidazole.
As a result, the active RNase H domain was separated from the histidine tag affinity column at 30 mM concentration of imidazole. The purified RNase H domain was mixed with 50% glycerol for storage at -20° C. after the removal of imidazole from it and employed fol the screening of HBV inhibitors.
2) Preparation of the substrate of the RNase H enzyme
In order to identify the RNase H activity, RNA/DNA complex which can be used as a substrate of the RNase H enzyme was prepared by performing in vitro transcription with […].
3) Screening of active inhibitors against RNase H
The RNase H activity was measured by using recombinant RNase H enzyme and radiolabled RNA/DNA hybrid. In order to measure the RNase H activity, 1 μg of RNase H enzyme and test compound were mixed with buffer solution containing 40 mM Tris-Cl (pH 8.0), 4 mM magnesium chloride, 40 mM potassium chloride and 2 mM DTT. The mixture was pretreated on ice for 10 minutes. After pretreatment is completed, RNA/DNA hybrid was added to incubate at 37° C. for 3 hours. After the reaction was stopped, 7.5 M ammonium acetate in a volume of 1/2 and ethanol in a 3-fold volume were added. The above reaction mixture was incubated at -20° C. for more than 2 hours and centrifuged for 15 minutes at 4° C., 13,000 rpm. The supernatant was obtained and the radioactive signal of supernatant was measured by scintillation counter.
As a control, water was added instead of test compound and the inhibitory activity was calculated to compare with the control, when the radioactivity intensity on each test compound, was obtained.

[3] = target: T3, HIV reverse transcriptase (HIV-RT) (Human immunodeficiency virus type 1 group M subtype B, UniProt P04585); assay: in vitro inhibition test against HIV reverse transcriptase; format: biochemical, HIV (AIDS virus); conditions: read-out: Inhibitory effect of HIV-RT; for inhibition at 0.1 µg/mL: 0.1 μg/ml; for inhibition at 1 µg/mL: 1 μg/ml
T3 construct: purchased Boehringer Mannheim
Procedure: Experiment 3: The in vitro inhibition test against HIV reverse transcriptase
The inhibitory activity in vitro was measured using a non-radioactive reverse transcriptase assay Kit (Boehringer Mannheim).
At first, 20 μl(40 ng) HIV-RT was added to the wells coated with streptavidin and with the addition of 20 μl, reaction mixture containing template/primer hybrid poly(A)/oligo(dT)15 and DIG-(digoxigenin)-dUTP, biotin-dUTP and TTP, 20 μl test compound was added and reacted at 37° C. for 1 hour. The control without test compound was used for the comparison of related activity. Since DNA containing nucleotide labeled with digoxigenin and biotine was prepared by the action of HIV-RT, it was combined with streptavidin coated at the bottom of the wells. After the reaction was completed, remaining impurities were removed by washing each well with 20 μl buffer solution (pH 7.0) for 30 seconds 5 times and with the addition of 200 μl anti-DIG-POD antibody, the mixture was reacted at 37° C. for 1 hour. For the removal of remaining impurities again, the reacting solution was washed with a buffer solution and with the addition of 200μl ABTS™ each, a substrate of POD(peroxidase), the solution was reacted at room temperature for 30 minutes. The absorbance was read by ELISA reader at 405 nm for the assay of reverse transcriptase activity and its inhibition activity.

T1 sequence (P03156 whole entry): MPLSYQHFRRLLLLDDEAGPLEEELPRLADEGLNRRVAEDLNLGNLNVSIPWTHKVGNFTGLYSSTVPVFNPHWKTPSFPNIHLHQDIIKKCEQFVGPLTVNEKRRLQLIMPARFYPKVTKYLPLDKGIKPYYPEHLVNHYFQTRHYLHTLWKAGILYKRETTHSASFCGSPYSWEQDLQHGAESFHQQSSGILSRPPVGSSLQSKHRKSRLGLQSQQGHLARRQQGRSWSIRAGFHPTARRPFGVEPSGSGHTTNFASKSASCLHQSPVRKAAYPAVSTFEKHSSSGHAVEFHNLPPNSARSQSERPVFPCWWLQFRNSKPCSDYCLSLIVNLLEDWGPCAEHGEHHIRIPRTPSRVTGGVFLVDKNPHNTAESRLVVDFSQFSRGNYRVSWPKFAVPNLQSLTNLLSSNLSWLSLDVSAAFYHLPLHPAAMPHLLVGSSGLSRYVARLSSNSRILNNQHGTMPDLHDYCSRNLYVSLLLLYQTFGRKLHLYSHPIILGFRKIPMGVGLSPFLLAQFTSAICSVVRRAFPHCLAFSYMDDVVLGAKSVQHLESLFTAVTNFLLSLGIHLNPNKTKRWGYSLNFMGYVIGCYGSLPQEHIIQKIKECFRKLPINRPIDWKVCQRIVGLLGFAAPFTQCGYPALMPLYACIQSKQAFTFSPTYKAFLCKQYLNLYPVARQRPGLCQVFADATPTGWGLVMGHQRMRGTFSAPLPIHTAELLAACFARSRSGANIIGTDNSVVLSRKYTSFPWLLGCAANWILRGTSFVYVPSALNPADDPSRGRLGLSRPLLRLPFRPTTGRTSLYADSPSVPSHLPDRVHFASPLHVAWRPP
T2 sequence (P03156 680-832): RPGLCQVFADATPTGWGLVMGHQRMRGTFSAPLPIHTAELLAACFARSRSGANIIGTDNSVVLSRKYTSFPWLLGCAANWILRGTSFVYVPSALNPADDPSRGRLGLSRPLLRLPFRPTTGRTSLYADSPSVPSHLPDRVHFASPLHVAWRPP

| Compound | inhibition at 0.1 µg/mL [1] [%] | inhibition at 1 µg/mL [1] [%] | inhibition at 0.1 µg/mL [2] [%] | inhibition at 1 µg/mL [2] [%] | inhibition at 0.1 µg/mL [3] [%] | inhibition at 1 µg/mL [3] [%] |
| --- | --- | --- | --- | --- | --- | --- |
| CC(C)Nc1cccnc1N1CCN(C(=O)c2ccc(C(=O)N(CCO)CCO)cc2)CC1 [Compound No. 12, 1-[N,N-Bis(2-hydroxyethyl)carbamoyl]-4-[1-[3-(isopropylamino)-2-pyridyl]piperazin-4-yl-carbonyl]benzene] | 52 | 63 | 86 | 91 | 46 | 52 |
| CC(C)Nc1cccnc1N1CCN(C(=O)c2ccc(C(=O)N3CCN(CCO)CC3)cc2)CC1 [Compound No. 26, 4-(2-Hydroxyethyl)-1-[4-[1-[3-(isopropylamino)-2-pyridyl]piperazin-4-yl-carbonyl]benzoyl]piperazine] | 32 | 54 | 66 | 95 | 45 | 55 |
| CC(C)Nc1cccnc1N1CCN(C(=O)c2ccc(C(=O)NC(CO)CO)cc2)CC1 [Compound No. 52, 1-[N-[Bis(hydroxymethyl)methyl]carbamoyl]-4-[1-[3-(isopropylamino)-2-pyridyl]piperazin-4-yl-carbonyl]benzene] | 52 | 63 | 41 | 58 | 57 | 61 |
| CC(C)Nc1cccnc1N1CCN(C(=O)c2ccc(C(=O)N(C)CC3OCCO3)cc2)CC1 [Compound No. 71, 1-[N-[(1,3-Dioxolan-2-yl)methyl]-N-methylcarbamoyl]-4-[1-[3-(isopropylamino)-2-pyridyl]piperazin-4-yl-carbonyl]benzene] | 35 | 51 | 56 | 62 | 68 | 70 |

From patent US5922871A, “Terephthalamide derivatives” (Dongwha Pharmaceutical Ind. Co., Ltd., priority 1997, dated 1999)
